Data on two molecules can be found in patent publication US20220089646A1 (THE UNIVERSITY OF QUEENSLAND, priority 2019, published 2022).

What all share (format): cell-based
Experiment [1] concerns the target T1, KOP (Homo sapiens, UniProt P41145). As to the kind of experiment: cAMP assay with naloxone in HEK-KOP cells. Particulars: naloxone 100 μM/well; for Mean cAMP response (FIG. 14): HEK-KOP, naloxone assay, peptide at approximate IC80; for Naloxone reversal of cAMP inhibition through KOP: p<0.01. The protocol: The preparation of buffers, cAMP standard curve, bead solutions were carried out identically to the agonist assay.
Forskolin had been optimised at 50 μM/well. Thus, the 25 mM stocks were used to prepare 300 μL of 0.3 mM Forskolin. The concentration of Forskolin prepared was 6 times the required concentration in the well to account for further dilution in the well. Forskolin solution was then made from this and used to dilute the drug solutions.
Approximate IC80 values were used for DP-7-11 and DP-7-12 to determine the ability of naloxone to reverse agonist inhibitory effect.
The desired concentration of naloxone was 100 μM/well. Thus, 100 μL of 600 μM naloxone was made up from 100 mM stock. This was 6 times the desired in-well concentration to account for further dilution in the well by Forskolin, peptide, cells and acceptor bead solutions.
Stimulation buffer was added to the 0.3 mM Forskolin solution to prepare the Forskolin only treatment solution as the positive control. Stimulation buffer used as the negative control.
The DP series compounds were assayed as follows: The different cAMP standard solutions (3 μL/well) were plated in duplicate. Naloxone solution was then plated (1 μL/well) for each treatment (DP-7-11, DP-7-12, Forskolin only and stimulation buffer) in triplicate. In the same way, stimulation buffer was plated (1 μL/well) for the same number of wells. This made up two sets of wells, antagonist and non-antagonist. Following this, the acceptor bead and cell mixture (3 μL/well) was added to the treatment wells. The plates were then covered and centrifuged at 280 g for 30 seconds before incubation on an orbital shaker for 30 minutes at room temperature. The acceptor bead mixture (3 μL/well) was then added to the cAMP standard curve wells, whilst the drug mixed with Forskolin solutions (3 μL/well) were added to the respective treatment wells in triplicate. Again, the plates were centrifuged at 280 g for 30 seconds, then covered and incubated on the orbital shaker for another 30 minutes. Finally, the donor bead mixture (10 μL/well) was added to each well. This was incubated at room temperature overnight on the orbital shaker.
The Ensight® Multimode Plate Reader was used to quantify the fluorescence units of each plate. Before reading, each plate was centrifuged at 280 g for 30 seconds. Using GraphPad Prism7® Software, cAMP concentrations were determined from the fluorescence data by fit spline/LOWESS analysis. The cAMP standard curve was used for interpolation at this point. The cAMP concentrations were then normalized to the highest cAMP concentration recorded and analyzed by one-way ANOVA for multiple comparisons. This analysis was corrected for multiple comparisons using Bonferroni. […]

Experiment [2] has as its target T1, KOP. The experiment can be described thus: In vitro cAMP activity at KOP (Table 10). Particulars: cAMP inhibition, four-parameter regression, normalised to U50488H. The protocol:
(§1) The CP series compounds were assayed as follows: The assay was performed using a 96 well ½ area plate. The different cAMP standard solutions (3 μL/well) were plated in duplicate. The different concentrations of drug (3 μL/well), and control solutions (3 μL/well) were plated in triplicate. Following this, the acceptor bead mixture (3 μL/well) was added to the respective sets—either cAMP standard curve or the treatment. This was covered and incubated on the orbital shaker for 60 minutes at 37° C. Then, the donor bead mixture (10 μL/well) was added to each well. This was incubated at room temperature overnight on the orbital shaker.
(§2) For DP-11-06 the assay was carried out in the same way as for the CP compounds except it was incubated for 30 mins at 37° C.
(§3) For the CP series compounds and DP-11-06, the Ensight® Multimode Plate Reader was used to quantify the fluorescence units of each plate. Before reading, each plate was centrifuged at 280 g for 30 seconds. Using GraphPad Prism7® Software, cAMP concentrations were determined by fit spline/LOWESS analysis. The cAMP standard curve was used for interpolation at this point. The cAMP concentrations were then normalized to the highest cAMP concentration recorded and analyzed by one-way ANOVA for multiple comparisons. The IC50 for each compound was then calculated using GraphPad Prism7® with non-linear regression analysis using four parameter curve fitting.
The results shown in Table 10 utilized rat plasma. • Note that DP-7-11 and CP5 represent the same compound, and DP-7-12 and CP6 are the same compound. In this regard, a different regression analysis method was adopted on the above cAMP experiments. Particularly, a new non-linear regression (four-parameter) was adopted to better account for hill slope, thereby improving the regression fit.

Experiment [3] concerns the target MOP (Homo sapiens, UniProt P35372). The experiment can be described thus: In vitro cAMP activity at MOP (Table 10). The following applies: cAMP inhibition, four-parameter regression. The protocol:
as §1, §2, §3
In this regard, a different regression analysis method was adopted on the above cAMP experiments. Particularly, a new non-linear regression (four-parameter) was adopted to better account for hill slope, thereby improving the regression fit.

*1 amine or outer side, *2 acyl side, *3 side chain or, on linkers, in order; H or OH if unused. Where a SMILES comes first, the peptide text is derived from it. Bridges are numbered along the chain shown (N, C = ends). [ ]: non-standard residue; d: D form. NHCH2CMe2S = CC(C)(CN[*:1])S[*:2] A value given as a limit tells only on which side of the number the result lay.

T1 sequence (P41145 whole entry): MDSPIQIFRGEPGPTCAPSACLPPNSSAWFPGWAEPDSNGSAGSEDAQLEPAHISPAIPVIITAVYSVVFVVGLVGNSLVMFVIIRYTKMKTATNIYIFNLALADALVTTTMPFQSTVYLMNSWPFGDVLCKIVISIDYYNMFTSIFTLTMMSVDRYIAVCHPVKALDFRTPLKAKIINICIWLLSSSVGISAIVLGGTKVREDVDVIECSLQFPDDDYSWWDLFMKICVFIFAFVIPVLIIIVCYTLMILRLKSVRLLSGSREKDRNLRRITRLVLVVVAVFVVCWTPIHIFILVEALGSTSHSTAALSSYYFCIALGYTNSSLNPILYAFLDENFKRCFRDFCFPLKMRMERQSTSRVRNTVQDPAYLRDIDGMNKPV
MOP, sequence (P35372 whole entry): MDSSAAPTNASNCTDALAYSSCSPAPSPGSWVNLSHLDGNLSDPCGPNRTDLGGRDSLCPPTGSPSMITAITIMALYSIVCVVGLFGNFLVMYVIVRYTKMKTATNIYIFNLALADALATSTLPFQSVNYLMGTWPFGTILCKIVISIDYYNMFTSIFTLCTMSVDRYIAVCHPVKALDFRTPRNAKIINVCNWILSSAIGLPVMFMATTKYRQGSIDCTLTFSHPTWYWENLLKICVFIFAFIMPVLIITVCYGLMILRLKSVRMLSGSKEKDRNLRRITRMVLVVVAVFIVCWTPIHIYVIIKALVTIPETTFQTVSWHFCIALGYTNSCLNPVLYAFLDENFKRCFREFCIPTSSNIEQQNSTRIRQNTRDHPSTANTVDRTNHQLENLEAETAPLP

Turning to `CC1(C)CNC(=O)C[C@H](C(=O)N[C@@H](CCCNC(=N)N)C(=O)N[C@@H](CCCNC(=N)N)C(N)=O)NC(=O)[C@H](Cc2ccccc2)NC(=O)CNC(=O)[C@@H](NC(=O)[C@@H](N)Cc2ccc(O)cc2)CSS1` [DP-7-11, c(Tyr-SSa-Gly-Phe-D(Asp)-Arg-Arg)], the “Mean cAMP response (FIG. 14)” value in experiment [1] is recorded as 56.14%. Also, the “Naloxone reversal of cAMP inhibition through KOP” value in experiment [1] is listed as “reversed by naloxone”. Also, the EC50 in experiment [2] and in experiment [3] was over 10000 nM in each case.

On to `CC1(C)CNC(=O)C[C@@H](NC(=O)[C@@H](N)Cc2ccc(O)cc2)C(=O)NCC(=O)N[C@@H](Cc2ccccc2)C(=O)N[C@H](C(=O)N[C@@H](CCCNC(=N)N)C(=O)N[C@@H](CCCNC(=N)N)C(N)=O)CSS1` [DP-7-12, c(Tyr-D(Asp)-Gly-Phe-SSa-Arg-Arg)] (H-Y[dD]GFCRR-NH2; linker 2-5 via NHCH2CMe2S), for which, in experiment [1], the “Mean cAMP response (FIG. 14)” value came to 52.40% and the “Naloxone reversal of cAMP inhibition through KOP” value is “reversed by naloxone”. In addition, in experiment [2], the midpoint of the response, the EC50, lay at 160 nM. Further, in experiment [3], the EC50 came to 2.7 nM.

One may read the EC50 as the concentration giving half of the maximal effect. Read a low EC50 as greater potency.
